Source: the supplement of paper PMC8960247
Counter-ions that a name gives are not always drawn. ± gives the standard error.

Experiments:
621-102 (TSC2-deficient) [1] = experiment: relative viability vs DMSO (fraction); higher = less cytotoxic; conditions: serum: 0.1% FBS, 72 h
UMB1949 (TSC2-deficient) = experiment: as above; conditions: serum: 0.1% FBS, 72 h;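 further: renal angiomyolipoma cell lines screened in 384-well plates, viability normalized per plate to DMSO-treated cells, each plate carrying 50 nM rapamycin and 1 µM staurosporine controls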
621-102 (TSC2-deficient) [2] = experiment: relative viability vs DMSO; higher = less cytotoxic; conditions: serum: 10% FBS, 72 h
621-103 (TSC2-rescued) = experiment: as above; conditions: serum: 10% FBS, 72 h

| Structure (SMILES) | relative viability (621-102 (TSC2-deficient) [1]; 0.0128 nM) | relative viability (621-102 (TSC2-deficient) [1]; 0.064 nM) | relative viability (621-102 (TSC2-deficient) [1]; 0.32 nM) | relative viability (621-102 (TSC2-deficient) [1]; 1.6 nM) | relative viability (621-102 (TSC2-deficient) [1]; 8 nM) | relative viability (621-102 (TSC2-deficient) [1]; 40 nM) | relative viability (621-102 (TSC2-deficient) [1]; 200 nM) | relative viability (621-102 (TSC2-deficient) [1]; 1000 nM) | relative viability (621-102 (TSC2-deficient) [1]; 5000 nM) | relative viability (UMB1949 (TSC2-deficient); 0.0128 nM) | relative viability (UMB1949 (TSC2-deficient); 0.064 nM) | relative viability (UMB1949 (TSC2-deficient); 0.32 nM) | relative viability (UMB1949 (TSC2-deficient); 1.6 nM) | relative viability (UMB1949 (TSC2-deficient); 8 nM) | relative viability (UMB1949 (TSC2-deficient); 40 nM) | relative viability (UMB1949 (TSC2-deficient); 200 nM) | relative viability (UMB1949 (TSC2-deficient); 1000 nM) | relative viability (UMB1949 (TSC2-deficient); 5000 nM) | relative viability (621-102 (TSC2-deficient) [2]; 0.0001 µM) [%] | relative viability (621-102 (TSC2-deficient) [2]; 0.001 µM) [%] | relative viability (621-102 (TSC2-deficient) [2]; 0.01 µM) [%] | relative viability (621-102 (TSC2-deficient) [2]; 0.1 µM) [%] | relative viability (621-102 (TSC2-deficient) [2]; 1 µM) [%] | relative viability (621-102 (TSC2-deficient) [2]; 10 µM) [%] | relative viability (621-103 (TSC2-rescued); 0.0001 µM) [%] | relative viability (621-103 (TSC2-rescued); 0.001 µM) [%] | relative viability (621-103 (TSC2-rescued); 0.01 µM) [%] | relative viability (621-103 (TSC2-rescued); 0.1 µM) [%] | relative viability (621-103 (TSC2-rescued); 1 µM) [%] | relative viability (621-103 (TSC2-rescued); 10 µM) [%] |
| --- | --- | --- | --- | --- | --- | --- | --- | --- | --- | --- | --- | --- | --- | --- | --- | --- | --- | --- | --- | --- | --- | --- | --- | --- | --- | --- | --- | --- | --- | --- |
| CN1CC[C@H](c2c(O)cc(O)c3c(=O)cc(-c4ccccc4Cl)oc23)[C@H](O)C1 [Flavopiridol hydrochloride] | 0.701 | 0.787 | 0.805 | 0.875 | 0.747 | 0.227 | 0.009 | 0.0076 | 0.0171 | 0.977 | 1 | 0.989 | 1.04 | 1.15 | 0.855 | 0.00837 | 0.00534 | 0.00482 | – | – | – | – | – | – | – | – | – | – | – | – |
| CN1CC[C@H](c2c(O)cc(O)c3c(=O)cc(-c4ccccc4Cl)oc23)[C@H](O)C1 [Flavopiridol(Alvocidib)] | 1.14 | 1.2 | 1.24 | 1.15 | 0.972 | 0.212 | 0.00428 | 0.00239 | 0.00377 | 1.12 | 1.16 | 1.04 | 1.21 | 1.08 | 0.923 | 0.00682 | 0.00291 | 0.00348 | – | – | – | – | – | – | – | – | – | – | – | – |
| COC1=C2C[C@@H](C)C[C@H](OC)[C@H](O)[C@@H](C)/C=C(\C)[C@H](OC(N)=O)[C@@H](OC)/C=C\C=C(/C)C(=O)NC(=CC1=O)C2=O [Geldanamycin] | 0.476 | 0.259 | 0.399 | 0.172 | 0.306 | 0.27 | 0.12 | 0.0204 | 0.0125 | – | – | – | – | – | – | – | – | – | 90.7 ± 2.4 | 91.7 ± 1.6 | 62.3 ± 3 | 39.82 ± 0.13 | 28.8 ± 1.5 | 8.32 ± 0.19 | 98.8 ± 6.2 | 77.8 ± 1.1 | 33.3 ± 7.4 | 10.09 ± 0.062 | 3.46 ± 0.37 | 3.05 ± 0.2 |
| CC(C)C[C@@H](C=O)NC(=O)[C@H](CC(C)C)NC(=O)[C@H](CC(C)C)NC(=O)OCc1ccccc1 [MG132] | 0.611 | 0.586 | 0.383 | 0.272 | 0.148 | 0.00944 | 0.00319 | 0.00253 | 0.0116 | 0.846 | 0.0534 | 0.0466 | 0.00704 | 0.00406 | 0.00242 | 0.00153 | 0.000971 | 0.00561 | – | – | – | – | – | – | – | – | – | – | – | – |
| Cc1ccc(NC(=O)c2ccc(CN3CCN(C)CC3)cc2)cc1Nc1nc(-c2cccnc2)cs1 [Masitinib(AB1010)] | 0.869 | 0.9 | 0.886 | 0.951 | 0.909 | 0.82 | 0.683 | 0.277 | 0.0135 | 1.09 | 1.21 | 1.16 | 1.18 | 1.09 | 1.19 | 0.96 | 0.156 | 0.0043 | – | – | – | – | – | – | – | – | – | – | – | – |
| Nc1ccccc1NC(=O)c1ccc(CNc2nccc(-c3cccnc3)n2)cc1 [Mocetinostat] | 0.964 | 0.98 | 0.857 | 0.954 | 0.735 | 0.401 | 0.174 | 0.084 | 0.00442 | 1.24 | 1.09 | 1.05 | 1.02 | 0.951 | 0.578 | 0.0241 | 0.00165 | 0.00203 | – | – | – | – | – | – | – | – | – | – | – | – |
| Cc1ccc([N+](=O)[O-])cc1S(=O)(=O)N(C)/N=C/c1cnc2ccc(Br)cn12 [PIK-75 Hydrochloride] | – | – | – | – | – | – | – | – | – | 0.512 | 0.42 | 0.371 | 0.417 | 0.126 | 0.00679 | 0.00475 | 0.00356 | 0.00221 | – | – | – | – | – | – | – | – | – | – | – | – |
| Cc1[nH]c2ccccc2c1CCNCc1ccc(/C=C/C(=O)NO)cc1 [Panobinostat (LBH589)] | 1.34 | 0.935 | 1.1 | 0.909 | 0.458 | 0.228 | 0.0101 | 0.00297 | 0.00203 | 1.08 | 1.02 | 0.955 | 0.779 | 0.0132 | 0.00793 | 0.0069 | 0.00422 | 0.00261 | – | – | – | – | – | – | – | – | – | – | – | – |
| CO[C@H]1C[C@@H]2CC[C@@H](C)[C@@](O)(O2)C(=O)C(=O)N2CCCC[C@H]2C(=O)O[C@H]([C@H](C)C[C@@H]2CC[C@@H](O)[C@H](OC)C2)CC(=O)[C@H](C)/C=C(\C)[C@@H](O)[C@@H](OC)C(=O)[C@H](C)C[C@H](C)/C=C/C=C/C=C/1C [Rapamycin(Sirolimus)] | 0.506 | 0.495 | 0.584 | 0.441 | 0.385 | 0.388 | 0.254 | 0.277 | 0.222 | 0.874 | 0.825 | 0.847 | 0.773 | 0.818 | 0.841 | 0.593 | 0.466 | 0.364 | – | – | – | – | – | – | – | – | – | – | – | – |
| CCS(=O)(=O)c1cccc(-c2cc(C(=O)NC3CCN(C)CC3)c(C)c3[nH]c4ncc(C)cc4c23)c1 [TAK-901] | – | – | – | – | – | – | – | – | – | 0.561 | 0.0956 | 0.0821 | 0.0562 | 0.0574 | 0.0411 | 0.00479 | 0.00175 | 0.0045 | 94.4 ± 2 | 98.3 ± 4.1 | 90 ± 2.7 | 75.451 ± 0.045 | 45.4 ± 2 | 7.72 ± 0.56 | 108 ± 2.1 | 97 ± 2 | 81.4 ± 1.8 | 72.5 ± 1.6 | 28.2 ± 2.3 | 5.6 ± 0.7 |
